Measured values taken from patent US9695155B2, “Herbicidal substituted pyrimidinyloxy benzene compounds” (E. I. DU PONT DE NEMOURS AND COMPANY, priority 2013, dated 2017).

Legend:
morningglory [1] = assay: Test A preemergence; format: in vivo, Ipomoea spp.
Outline: (§1)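 Compounds in non-phytotoxic solvent with surfactant applied as soil spray preemergence, or postemergence to plants 2-10 cm at one- to two-leaf stage, in loam/sand. After approximately 10 days in greenhouse, injury rated visually versus untreated controls, 0 (no effect) to 100 (complete control).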

pigweed [2] = assay: Test A postemergence; format: in vivo, Amaranthus retroflexus; conditions: 0 to 100 scale where 0 is no effect and 100 is complete control
Outline: as §1

morningglory [3] = assay: Test A postemergence; format: in vivo, Ipomoea spp.; conditions: 0 to 100 scale where 0 is no effect and 100 is complete control
Outline: as §1

corn [4] = assay: Test A postemergence; format: in vivo, Zea mays; conditions: 0 to 100 scale where 0 is no effect and 100 is complete control
Outline: as §1

barnyardgrass [5] = assay: Test C flooded paddy test; format: in vivo, Echinochloa crus-galli; conditions: Flood, scale 0 to 100 (0 no effect, 100 complete control), 13 to 15 days
Text: (§2) At time of treatment, test pots were flooded to 3 cm above the soil surface, treated by application of test compounds directly to the paddy water, and then maintained at that water depth for the duration of the test. Treated plants and controls were maintained in a greenhouse for 13 to 15 days, after which time all species were compared to controls and visually evaluated. […] A dash (-) response means no test result.

barnyardgrass [6] = assay: Test A preemergence; format: in vivo, Echinochloa crus-galli
Outline: as §1

wheat [7] = assay: Test A preemergence; format: in vivo, Triticum aestivum
Outline: as §1

wheat [8] = assay: Test A postemergence; format: in vivo, Triticum aestivum; conditions: 0 to 100 scale where 0 is no effect and 100 is complete control
Outline: as §1

ducksalad = assay: Test C flooded paddy test; format: in vivo, Heteranthera limosa; conditions: Flood, scale 0 to 100 (0 no effect, 100 complete control), 13 to 15 days
Text: as §2

Heteranthera limosa = assay: Test B flooded paddy test; format: in vivo; conditions: Flood, 250 g ai/ha; 0 to 100 scale where 0 is no effect and 100 is complete control
Outline: (§3)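 2-leaf stage plants; pots flooded to 3 cm, compound added to paddy water, depth maintained. Greenhouse 13–15 d. Visual rating vs untreated controls, 0 (no effect) to 100 (complete control); dash = no result.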

rice [9] = assay: Test B flooded paddy test; format: in vivo, Oryza sativa; conditions: Flood, 250 g ai/ha; 0 to 100 scale where 0 is no effect and 100 is complete control
Outline: as §3

pigweed [10] = assay: Test A preemergence; format: in vivo, Amaranthus retroflexus
Outline: as §1

corn [11] = assay: Test A preemergence; format: in vivo, Zea mays
Outline: as §1

sedge, umbrella [12] = assay: Test C flooded paddy test; format: in vivo, Cyperus difformis; conditions: Flood, scale 0 to 100 (0 no effect, 100 complete control), 13 to 15 days
Text: as §2

large (Lg) crabgrass [13] = assay: Test A postemergence; format: in vivo, Digitaria sanguinalis; conditions: 0 to 100 scale where 0 is no effect and 100 is complete control
Outline: as §1

barnyardgrass [14] = assay: Test A postemergence; format: in vivo, Echinochloa crus-galli; conditions: 0 to 100 scale where 0 is no effect and 100 is complete control
Outline: as §1

velvetleaf [15] = assay: Test A preemergence; format: in vivo, Abutilon theophrasti
Outline: as §1

large (Lg) crabgrass [16] = assay: Test A preemergence; format: in vivo, Digitaria sanguinalis
Outline: as §1

rice [17] = assay: Test C flooded paddy test; format: in vivo, Oryza sativa; conditions: Flood, scale 0 to 100 (0 no effect, 100 complete control), 13 to 15 days
Outline: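 Under a constant 3 cm flood, test compounds went directly into the paddy water. Following 13 to 15 days of greenhouse growth, treated species and controls were compared by eye.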

barnyardgrass [18] = assay: Test B flooded paddy test; format: in vivo, Echinochloa crus-galli; conditions: Flood, 250 g ai/ha; 0 to 100 scale where 0 is no effect and 100 is complete control
Outline: as §3

velvetleaf [19] = assay: Test A postemergence; format: in vivo, Abutilon theophrasti; conditions: 0 to 100 scale where 0 is no effect and 100 is complete control
Outline: as §1

giant foxtail [20] = assay: Test A postemergence; format: in vivo, Setaria faberii; conditions: 0 to 100 scale where 0 is no effect and 100 is complete control
Outline: as §1

giant foxtail [21] = assay: Test A preemergence; format: in vivo, Setaria faberii
Outline: as §1

sedge, umbrella [22] = assay: Test B flooded paddy test; format: in vivo, Cyperus difformis; conditions: Flood, 250 g ai/ha; 0 to 100 scale where 0 is no effect and 100 is complete control
Outline: as §3

[23] = 500 g ai/ha, 0 to 100 scale where 0 is no effect and 100 is complete control

CON=Cc1cccc(Oc2ncc(Cl)cn2)c1-n1cc(Br)cn1 [Compound 203]
Morningglory plant response rating (0 to 100 scale) (morningglory [1]; 125 g ai/ha): 0
Morningglory plant response rating (morningglory [1]; [23]): 10
Pigweed plant response rating (pigweed [2]; 125 g ai/ha): 70
Plant response rating, Pigweed (pigweed [2]; 500 g ai/ha): 90
Morningglory plant response rating (morningglory [3]; 125 g ai/ha): 20
Plant response rating, Morningglory (morningglory [3]; 500 g ai/ha): 70
Corn plant response rating (corn [4]; 125 g ai/ha): 30
Plant response rating, Corn (corn [4]; 500 g ai/ha): 50
Plant response rating, Barnyardgrass (barnyardgrass [5]; 31 g ai/ha): 40
Plant response rating, Barnyardgrass (barnyardgrass [5]; 62 g ai/ha): 50
Plant response rating, Barnyardgrass (barnyardgrass [5]; 125 g ai/ha): 50
Barnyardgrass plant response rating (0 to 100 scale, 0 is no effect, 100 is complete control) (barnyardgrass [6]; 125 g ai/ha): 10
Barnyardgrass plant response rating (barnyardgrass [6]; [23]): 40
Wheat plant response rating (0 to 100 scale) (wheat [7]; 125 g ai/ha): 0
Wheat plant response rating (wheat [7]; [23]): 0
Wheat plant response rating (wheat [8]; 125 g ai/ha): 0
Plant response rating, Wheat (wheat [8]; 500 g ai/ha): 20
Plant response rating, Ducksalad (ducksalad; 31 g ai/ha): 0
Plant response rating, Ducksalad (ducksalad; 62 g ai/ha): 50
Plant response rating, Ducksalad (ducksalad; 125 g ai/ha): 70
Plant response rating, Ducksalad (Heteranthera limosa): 90
Plant response rating, Rice (rice [9]): 10
Pigweed plant response rating (0 to 100 scale) (pigweed [10]; 125 g ai/ha): 90
Pigweed plant response rating (pigweed [10]; [23]): 100
Corn plant response rating (0 to 100 scale) (corn [11]; 125 g ai/ha): 0
Corn plant response rating (corn [11]; [23]): 0
Plant response rating, Sedge, Umbrella (sedge, umbrella [12]; 31 g ai/ha): 50
Plant response rating, Sedge, Umbrella (sedge, umbrella [12]; 62 g ai/ha): 75
Plant response rating, Sedge, Umbrella (sedge, umbrella [12]; 125 g ai/ha): 85
Crabgrass, Large plant response rating (large (Lg) crabgrass [13]; 125 g ai/ha): 60
Plant response rating, Crabgrass, Large (large (Lg) crabgrass [13]; 500 g ai/ha): 80
Barnyardgrass plant response rating (barnyardgrass [14]; 125 g ai/ha): 40
Plant response rating, Barnyardgrass (barnyardgrass [14]; 500 g ai/ha): 70
Velvetleaf plant response rating (0 to 100 scale) (velvetleaf [15]; 125 g ai/ha): 30
Velvetleaf plant response rating (velvetleaf [15]; [23]): 40
Crabgrass, Large plant response rating (0 to 100 scale) (large (Lg) crabgrass [16]; 125 g ai/ha): 100
Crabgrass, Large plant response rating (large (Lg) crabgrass [16]; [23]): 100
Plant response rating, Rice (rice [17]; 31 g ai/ha): 0
Plant response rating, Rice (rice [17]; 62 g ai/ha): 20
Plant response rating, Rice (rice [17]; 125 g ai/ha): 20
Plant response rating, Barnyardgrass (barnyardgrass [18]): 0
Velvetleaf plant response rating (velvetleaf [19]; 125 g ai/ha): 80
Plant response rating, Velvetleaf (velvetleaf [19]; 500 g ai/ha): 90
Foxtail, Giant plant response rating (giant foxtail [20]; 125 g ai/ha): 70
Plant response rating, Foxtail, Giant (giant foxtail [20]; 500 g ai/ha): 80
Foxtail, Giant plant response rating (0 to 100 scale) (giant foxtail [21]; 125 g ai/ha): 90
Foxtail, Giant plant response rating (giant foxtail [21]; [23]): 100
Plant response rating, Sedge, Umbrella (sedge, umbrella [22]): 90
